Data set [1] concerns MDA-MB-231 cells. In words: Membrane fluidity by EPR (S parameter), MDA-MB-231. It counts as cell-based, human. The following applies: MDA-MB-231, pretreatment with non-cytotoxic dose. On the procedure: (§1) Membrane fluidity was determined by a spin-labeling method using EPR, as previously described^27. Briefly, plasma membranes of living cells were labeled by incubating cells for 15 min at 37° C. with 12-doxyl stearic acid (36 μg/mL), a fatty acid with a stable nitroxide radical ring at the C-12 position. Cells were then washed twice with PBS to remove excess 12-doxyl stearic acid and EPR spectra of the labeled samples were acquired at ambient temperature on a Bruker Elexsys EPR spectrometer operating at 3509.25 G center field, 20 mW microwave power, 9.86 GHz microwave frequency, 1.77 G modulation amplitude, and 100 kHz modulation frequency. Fluidity of the spin-labeled membranes was quantified by calculating the S parameter. An increase in the S parameter reflects a decrease in membrane fluidity, and vice versa.

Data set [2] concerns MDA-MB-231 cells. Put plainly: Boyden chamber cell migration, MDA-MB-231. It counts as cell-based, human. The following applies: MDA-MB-231, pretreatment with non-cytotoxic dose, cl-CD95L. The procedure:
(§2) Boyden chambers contained membranes with a pore size of 8 μm (Millipore, Molsheim, France). After hydration of the membranes, mesenchymal cells (10^5 cells per chamber) or epithelial cells (3×10^5 cells per chamber) were added to the top chamber in low serum (1%)-containing medium. The bottom chamber was filled with low serum (1%)-containing medium in the presence or absence of cl-CD95L (100 ng/mL). Cells were cultured for 24 h at 37° C. To quantify migration, cells were mechanically removed from the top side of the membrane using a cotton-tipped swab, and migrating cells from the reverse side were fixed with methanol and stained with Giemsa. For each experiment, five representative pictures were taken for each insert, then cells were lyzed and absorbance at 560 nm correlated to the amount of Giemsa stain was measured.

The test system of a further data set is lung cancer cells. The following applies: via activation of protein phosphatase 2A; cited from earlier work.
Data set [3] deals with mesenchymal breast cancer cells. Put plainly: Membrane fluidity by EPR, mesenchymal breast cancer cells. It counts as cell-based, human. The following applies: for CD95-mediated increase in membrane fluidization: 1 μM pre-incubation 60 min, then cl-CD95L 100 ng/mL 30 min. On the procedure: FIG. 1. Treatment of mesenchymal breast cancer cells with a non-toxic amount of exogenous C16:0 ceramide reduces plasma membrane fluidity and prevents basal and CD95-mediated cell migration. A. The indicated cells were pre-incubated with or without a non-cytotoxic dose (1 μM) of C16:0 ceramide (C16-Cer) for 60 min, and were then incubated with or without cl-CD95L (100 ng/mL) for 30 min. Membrane fluidity was assessed by EPR. Values are means±SEM of four independent experiments (*, p<0.05; ns, not significant). B. Indicated cells were pretreated with or without C16:0 ceramide ([…]) for 60 min and were then incubated with or without cl-CD95L (100 ng/mL) for 24 h. Cell migration was assessed by the Boyden chamber assay. Bars=70 μm. Giemsa-stained cells that migrated to the lower side of the membrane were lysed and absorbance at 560 nm was recorded. Values represent the means and SEM of three independent experiments (*p<0.05). Membrane fluidity was determined by a spin-labeling method using EPR, as previously described^27. Briefly, plasma membranes of living cells were labeled by incubating cells for 15 min at 37° C. with 12-doxyl stearic acid (36 μg/mL), a fatty acid with a stable nitroxide radical ring at the C-12 position. Cells were then washed twice with PBS to remove excess 12-doxyl stearic acid and EPR spectra of the labeled samples were acquired at ambient temperature on a Bruker Elexsys EPR spectrometer operating at 3509.25 G center field, 20 mW microwave power, 9.86 GHz microwave frequency, 1.77 G modulation amplitude, and 100 kHz modulation frequency. Fluidity of the spin-labeled membranes was quantified by calculating the S parameter. An increase in the S parameter reflects a decrease in membrane fluidity, and vice versa.

Data set [4] deals with CD95-mediated PI3K signaling pathway. Put plainly: Akt serine 473 phosphorylation (CD95-mediated PI3K signaling). Format: cell-based. On the procedure:
Cells were lyzed for 30 min at 4° C. in lysis buffer (25 mM HEPES pH 7.4, 1% (v/v) Triton X-100, 150 mM NaCl, and 2 mM EGTA supplemented with a mixture of protease inhibitors). Protein concentration was determined by the bicinchoninic acid method (Pierce, Rockford, Ill., USA) according to the manufacturer's protocol. Proteins were resolved by 8, 10, or 12% SDS-PAGE and transferred to a nitrocellulose membrane (GE Healthcare, Buckinghamshire, UK). The membrane was blocked for 15 min with TBST (50 mM Tris, 160 mM NaCl, and 0.05% (v/v) Tween 20, pH 7.4) containing 5% (w/v) dried skimmed milk (TBSTM), and was then incubated overnight at 4° C. with the primary antibody diluted in TBSTM. The membrane was washed with TBST and was then incubated with peroxidase-labeled anti-mouse IgG1 or IgG2a (CliniSciences, Nanterre, France) for 45 min. Proteins were visualized using the enhanced chemiluminescence substrate kit (ECL RevelBlOt®, Ozyme, Saint Quentin en Yvelines, France).

Data set [5] concerns mesenchymal breast cancer cells. Put plainly: Cytotoxicity of exogenous C16:0 ceramide. Format: cell-based, human. The following applies: 1 μM.
Data set [6] has the same test system. In words: Boyden chamber cell migration, mesenchymal breast cancer cells. Format: cell-based, human. The conditions noted are these: non-cytotoxic concentration; for basal migration: Boyden chamber 24 h; for CD95-mediated migration: cl-CD95L 100 ng/mL 24 h, Boyden chamber. On the procedure: FIG. 1. Treatment of mesenchymal breast cancer cells with a non-toxic amount of exogenous C16:0 ceramide reduces plasma membrane fluidity and prevents basal and CD95-mediated cell migration. A. The indicated cells were pre-incubated with or without a non-cytotoxic dose (1 μM) of C16:0 ceramide (C16-Cer) for 60 min, and were then incubated with or without cl-CD95L (100 ng/mL) for 30 min. Membrane fluidity was assessed by EPR. Values are means±SEM of four independent experiments (*, p<0.05; ns, not significant). B. Indicated cells were pretreated with or without C16:0 ceramide ([…]) for 60 min and were then incubated with or without cl-CD95L (100 ng/mL) for 24 h. Cell migration was assessed by the Boyden chamber assay. Bars=70 μm. Giemsa-stained cells that migrated to the lower side of the membrane were lysed and absorbance at 560 nm was recorded. Values represent the means and SEM of three independent experiments (*p<0.05).
as §2

Data set [7] deals with epithelial cell line MCF7. Put plainly: Boyden chamber cell migration, MCF7. It counts as cell-based, human. The conditions noted are these: MCF7, non-cytotoxic concentration. On the procedure:
as §2

The next data set concerns CerS. The following applies: cited from earlier work.
Data set [8] deals with epithelial cell line MCF7. In words: Membrane fluidity by EPR, MCF7. Format: cell-based, human. The following applies: MCF7, non-cytotoxic concentration, 48 hours. The procedure:
as §1

For a further data set, the system named is NMuMG cells. The following applies: cited from earlier work.

“Also recorded” adds a separate entry of the source.

Turning to `CCCCCCCCC1CC1CCCCCCCC(=O)OCCOCCOC` (centres unmarked) [A2C], the basal membrane fluidity result in the data set on MDA-MB-231 cells [1] was “significantly enhanced”. Further, the “CD95-mediated increase in plasma membrane fluidity” value with MDA-MB-231 cells [1] (then cl-CD95L) is on record as “significantly enhanced”. For the same compound, in the data set on MDA-MB-231 cells [2], the CD95-mediated migration result is recorded as “stimulated”.

In the case of `CCCCCCCCCCCCC/C=C/[C@@H](O)[C@H](CO)NC(C)=O` [C2-ceramide], the “migration of lung cancer cells in response to nicotine” value with lung cancer cells is given as “inhibit”.

For the compound `CCCCCCCCCCCCC/C=C/[C@@H](O)[C@H](CO)NC(=O)CCCCCCCCCCCCCCC` [C16-ceramide, N-palmitoyl-D-sphingosine], the “CD95-mediated increase in membrane fluidization” value in data set [3] is given as “inhibited”; in [3] (listed as C16:0 ceramide) it was “completely inhibited”. The “basal S parameter” value in data set [3] (non-cytotoxic concentration (1 μM), increase in S = decrease in fluidity) is recorded as “slightly increased”. In addition, in data set [3] (non-toxic amount of exogenous C16:0 ceramide), the plasma membrane fluidity entry is recorded as “reduces”. For the same compound, the “CD95-mediated PI3K signaling pathway (phosphorylation at serine 473 of Akt)” value in [4] is given as “did not affect”. Also, the cytotoxicity result in data set [5] is given as “non-cytotoxic”. For the same compound, the basal migration entry in data set [6] was “impaired”; in [6] (listed as C16:0 ceramide), “prevents”. Moreover, the CD95-mediated migration entry is recorded as “impaired; also recorded: inhibited” in data set [6] and “prevents” in data set [6] (listed as C16:0 ceramide).

`CCCC[C@@H](C)[C@@H](OC(=O)C[C@@H](CC(=O)O)C(=O)O)[C@H](C[C@@H](C)C[C@H](O)CCCC[C@@H](O)C[C@H](O)[C@H](C)N)OC(=O)C[C@@H](CC(=O)O)C(=O)O` [FB1, Fumonisin B1]: in [7], the CD95-mediated cell migration entry is given as “enhanced” and the basal cell migration result is “enhanced”. For the same compound, the CerS activity entry in the data set with CerS is “selectively inhibits”. Also, in data set [8], the CD95-induced membrane fluidity result is “slightly, but significantly, increased” and the basal membrane fluidity result is reported as “slightly, but significantly, increased”.

Regarding gangliotetraosylceramide [Gg4], the “reversal of TGF-β-induced EMT” value in the data set on NMuMG cells is on record as “does”.

Source of the values: patent US9851358B2, “Methods and pharmaceutical compositions for preventing or reducing metastatic dissemination” (INSERM (Institut National de la Sante et de la Recherche …, priority 2014, dated 2017).
